Results reported in PMC5218480 (PLoS ONE, 2017).

Tested on: MV-4-11 cells
Test: Gene expression microarray analysis (Affymetrix PrimeView) and GSEA
Type: cell-based, human
Parameters: RFU PODN (11730768_x_at) / Fold change /veh PODN (11730768_x_at) / RFU LINC00158 (11744669_a_at) / Fold change /veh LINC00158 (11744669_a_at) / RFU DUSP10 (11751237_a_at) / Fold change /veh DUSP10 (11751237_a_at) / RFU ID3 (11757404_x_at) / Fold change /veh ID3 (11757404_x_at) / RFU PLEKHG5 (11737974_s_at) / Fold change /veh PLEKHG5 (11737974_s_at) / RFU LRRC4B (11730491_at) / Fold change /veh LRRC4B (11730491_at) / RFU GIMAP4 (11747438_a_at) / Fold change /veh GIMAP4 (11747438_a_at) / RFU KRT8 (11758183_x_at) / Fold change /veh KRT8 (11758183_x_at) / RFU CNN1 (11734310_a_at) / Fold change /veh CNN1 (11734310_a_at) / RFU VPS37D (11726825_at) / Fold change /veh VPS37D (11726825_at) / RFU C10orf10 (11716522_x_at) / Fold change /veh C10orf10 (11716522_x_at) / RFU KIR2DL2 /// KIR2DL4 /// KIR2DL5A /// KIR2DL5B /// KIR2DS1 /// KIR2DS2 /// KIR2DS3 /// KIR2DS4 /// KIR3DL3 /// KIR3DL3 /// KIR3DS1 (11738374_at) / Fold change /veh KIR2DL2 /// KIR2DL4 /// KIR2DL5A /// KIR2DL5B /// KIR2DS1 /// KIR2DS2 /// KIR2DS3 /// KIR2DS4 /// KIR3DL3 /// KIR3DL3 /// KIR3DS1 (11738374_at) / RFU C1QL1 (11718748_at) / Fold change /veh C1QL1 (11718748_at) / RFU TMPRSS4 (11747572_a_at) / Fold change /veh TMPRSS4 (11747572_a_at) / RFU HAMP (11756126_x_at) / Fold change /veh HAMP (11756126_x_at) / RFU RNFT2 (11725882_a_at) / Fold change /veh RNFT2 (11725882_a_at) / RFU NR4A2 (11747474_a_at) / Fold change /veh NR4A2 (11747474_a_at) / RFU ABCC12 (11746883_a_at) / Fold change /veh ABCC12 (11746883_a_at) / RFU TMEM136 (11760407_x_at) / Fold change /veh TMEM136 (11760407_x_at) / RFU CLDN22 /// WWC2 (11732394_at) / Fold change /veh CLDN22 /// WWC2 (11732394_at) / RFU HLA-DPB1 (11760878_x_at) / Fold change /veh HLA-DPB1 (11760878_x_at) / RFU SPINT1 (11716480_a_at) / Fold change /veh SPINT1 (11716480_a_at) / RFU GAP43 (11754022_s_at) / Fold change /veh GAP43 (11754022_s_at) / RFU A4GNT (11735810_at) / Fold change /veh A4GNT (11735810_at) / RFU PRB3 (11715151_x_at) / Fold change /veh PRB3 (11715151_x_at) / RFU TUBB4B (11761932_at) / Fold change /veh TUBB4B (11761932_at) / RFU CAPN14 (11732068_a_at) / Fold change /veh CAPN14 (11732068_a_at) / RFU TMCC2 (11721928_a_at) / Fold change /veh TMCC2 (11721928_a_at) / RFU IRGQ (11745062_a_at) / Fold change /veh IRGQ (11745062_a_at) / RFU FAM174B (11720279_a_at) / Fold change /veh FAM174B (11720279_a_at) / RFU TMPRSS4 (11748680_a_at) / Fold change /veh TMPRSS4 (11748680_a_at) / RFU FAM212B (11763350_a_at) / Fold change /veh FAM212B (11763350_a_at) / RFU PLEKHG5 (11743358_a_at) / Fold change /veh PLEKHG5 (11743358_a_at) / RFU ZSCAN30 (11745921_a_at) / Fold change /veh ZSCAN30 (11745921_a_at) / RFU CMKLR1 (11741424_a_at) / Fold change /veh CMKLR1 (11741424_a_at) / RFU LOC101060620 /// MAPK8IP1 (11723275_at) / Fold change /veh LOC101060620 /// MAPK8IP1 (11723275_at) / RFU SPTSSB (11747773_x_at) / Fold change /veh SPTSSB (11747773_x_at) / RFU PRSS12 (11739890_at) / Fold change /veh PRSS12 (11739890_at) / RFU BIN1 (11741810_x_at) / Fold change /veh BIN1 (11741810_x_at) / RFU WNT11 (11732464_a_at) / Fold change /veh WNT11 (11732464_a_at) / RFU C10orf10 (11716521_a_at) / Fold change /veh C10orf10 (11716521_a_at) / RFU C5orf56 (11738089_at) / Fold change /veh C5orf56 (11738089_at) / RFU CYB561 (11721691_x_at) / Fold change /veh CYB561 (11721691_x_at) / RFU ANKRD19P (11752326_a_at) / Fold change /veh ANKRD19P (11752326_a_at) / RFU OR2T12 /// OR2T33 /// OR2T8 (11738714_s_at) / Fold change /veh OR2T12 /// OR2T33 /// OR2T8 (11738714_s_at) / RFU VCAN (11748164_a_at) / Fold change /veh VCAN (11748164_a_at) / RFU JSRP1 (11732532_at) / Fold change /veh JSRP1 (11732532_at) / RFU KRTAP10-11 (11738290_x_at) / Fold change /veh KRTAP10-11 (11738290_x_at) / RFU MYO3A (11730013_a_at) / Fold change /veh MYO3A (11730013_a_at) / RFU EBF3 (11725865_a_at) / Fold change /veh EBF3 (11725865_a_at) / RFU CAMK2N1 (11719241_x_at) / Fold change /veh CAMK2N1 (11719241_x_at) / RFU C5orf56 (11738088_a_at) / Fold change /veh C5orf56 (11738088_a_at) / RFU OLFML3 (11715873_a_at) / Fold change /veh OLFML3 (11715873_a_at) / RFU LOC100653217 /// NTM (11731650_a_at) / Fold change /veh LOC100653217 /// NTM (11731650_a_at) / RFU MAPK11 (11762145_a_at) / Fold change /veh MAPK11 (11762145_a_at) / RFU FIZ1 (11724087_x_at) / Fold change /veh FIZ1 (11724087_x_at) / RFU OASL (11726364_x_at) / Fold change /veh OASL (11726364_x_at) / RFU SOX15 (11748057_x_at) / Fold change /veh SOX15 (11748057_x_at) / RFU CD79A (11719716_a_at) / Fold change /veh CD79A (11719716_a_at) / RFU HIST1H1D (11736915_at) / Fold change /veh HIST1H1D (11736915_at) / RFU CASKIN2 (11723855_a_at) / Fold change /veh CASKIN2 (11723855_a_at) / RFU LOC730098 (11760151_x_at) / Fold change /veh LOC730098 (11760151_x_at) / RFU OR4N2 (11742367_at) / Fold change /veh OR4N2 (11742367_at) / RFU PRRT2 (11749266_a_at) / Fold change /veh PRRT2 (11749266_a_at) / RFU SNX32 (11753110_a_at) / Fold change /veh SNX32 (11753110_a_at) / RFU CDHR5 (11726645_a_at) / Fold change /veh CDHR5 (11726645_a_at) / RFU RCAN1 (11760418_a_at) / Fold change /veh RCAN1 (11760418_a_at) / RFU FAM167A (11723789_a_at) / Fold change /veh FAM167A (11723789_a_at) / RFU FAM26E (11764081_at) / Fold change /veh FAM26E (11764081_at) / RFU ISYNA1 (11749810_s_at) / Fold change /veh ISYNA1 (11749810_s_at) / RFU ACY1 (11761880_at) / Fold change /veh ACY1 (11761880_at) / RFU 11764098_at / Fold change /veh 11764098_at / RFU SAMD14 (11745864_x_at) / Fold change /veh SAMD14 (11745864_x_at) / RFU NPB (11741838_a_at) / Fold change /veh NPB (11741838_a_at) / RFU TMPRSS6 (11731388_a_at) / Fold change /veh TMPRSS6 (11731388_a_at) / RFU KRTAP10-2 (11738614_at) / Fold change /veh KRTAP10-2 (11738614_at) / RFU ARHGAP8 /// PRR5-ARHGAP8 (11727945_x_at) / Fold change /veh ARHGAP8 /// PRR5-ARHGAP8 (11727945_x_at) / RFU KRTAP5-7 /// NADSYN1 (11734609_at) / Fold change /veh KRTAP5-7 /// NADSYN1 (11734609_at) / RFU RASL12 (11751679_a_at) / Fold change /veh RASL12 (11751679_a_at) / RFU CDKN2B (11736163_a_at) / Fold change /veh CDKN2B (11736163_a_at) / RFU PRF1 (11729649_at) / Fold change /veh PRF1 (11729649_at) / RFU, ZNF638 /// ZNF638-IT1 / Fold change vs veh, ZNF638 /// ZNF638-IT1 / RFU, PANK3 / Fold change vs veh, PANK3 / RFU, SH3YL1 / Fold change vs veh, SH3YL1 / RFU, ZEB2 / Fold change vs veh, ZEB2 / RFU, NRIP1 / Fold change vs veh, NRIP1 / RFU, PTTG1IP / Fold change vs veh, PTTG1IP / RFU, CAPN2 / Fold change vs veh, CAPN2 / RFU, MED14 / Fold change vs veh, MED14 / RFU, SNORA58 / Fold change vs veh, SNORA58 / RFU, C1orf63 / Fold change vs veh, C1orf63 / RFU, LRRFIP1 / Fold change vs veh, LRRFIP1 / RFU, NDUFAF7 / Fold change vs veh, NDUFAF7 / RFU, SLC12A2 / Fold change vs veh, SLC12A2 / RFU, IBTK / Fold change vs veh, IBTK / RFU, ESF1 / Fold change vs veh, ESF1 / Fold change vs veh, TMEM50B / RFU, TAOK1 / Fold change vs veh, TAOK1 / RFU, ACBD3 / Fold change vs veh, ACBD3 / RFU, TMA16 / Fold change vs veh, TMA16 / RFU, RWDD3 / Fold change vs veh, RWDD3 / RFU, BCAT1 / Fold change vs veh, BCAT1 / RFU, EDEM3 / Fold change vs veh, EDEM3 / RFU, TMEM33 / Fold change vs veh, TMEM33 / RFU, WDR75 / Fold change vs veh, WDR75 / RFU, AHCTF1 / Fold change vs veh, AHCTF1 / RFU, TFRC / Fold change vs veh, TFRC / RFU, ZDHHC17 / Fold change vs veh, ZDHHC17 / RFU, NOM1 / Fold change vs veh, NOM1 / RFU, ARL8B / Fold change vs veh, ARL8B / RFU, ZBTB11 / Fold change vs veh, ZBTB11 / RFU, TAMM41 / Fold change vs veh, TAMM41 / RFU, KIAA1704 /// LOC100996395 / Fold change vs veh, KIAA1704 /// LOC100996395 / RFU, ING1 / Fold change vs veh, ING1 / RFU, TRMT61B / Fold change vs veh, TRMT61B / RFU, FUBP3 / Fold change vs veh, FUBP3 / RFU, TP53 / Fold change vs veh, TP53 / RFU, TNKS2 / Fold change vs veh, TNKS2 / RFU, ZFP14 / Fold change vs veh, ZFP14 / RFU, ACTR2 / Fold change vs veh, ACTR2 / RFU, PPP3R1 / Fold change vs veh, PPP3R1 / RFU, PIK3R1 / Fold change vs veh, PIK3R1 / RFU, HNRNPA1 / Fold change vs veh, HNRNPA1 / RFU, RNF170 / Fold change vs veh, RNF170 / RFU, ZNF28 / Fold change vs veh, ZNF28 / RFU, RNGTT / Fold change vs veh, RNGTT / RFU, OGT / Fold change vs veh, OGT / RFU, BRD1 / Fold change vs veh, BRD1 / RFU, MARS / Fold change vs veh, MARS / RFU, ZNF655 / Fold change vs veh, ZNF655 / RFU, FAHD1 / Fold change vs veh, FAHD1 / RFU, BDP1 / Fold change vs veh, BDP1 / RFU, LRRCC1 / Fold change vs veh, LRRCC1 / RFU, ARID1A / Fold change vs veh, ARID1A / RFU, ZNF146 / Fold change vs veh, ZNF146 / RFU, ZNF330 / Fold change vs veh, ZNF330 / RFU, GPN3 / Fold change vs veh, GPN3 / RFU, C9orf123 / Fold change vs veh, C9orf123 / RFU, N4BP2L2 / Fold change vs veh, N4BP2L2 / RFU, ARFIP1 / Fold change vs veh, ARFIP1 / RFU, FAM179B / Fold change vs veh, FAM179B / RFU, BCL10 / Fold change vs veh, BCL10 / RFU, UHRF1BP1L / Fold change vs veh, UHRF1BP1L / RFU, BET1 / Fold change vs veh, BET1 / RFU, CNOT2 / Fold change vs veh, CNOT2 / RFU, ZNF268 / Fold change vs veh, ZNF268 / Fold change vs veh, ZNF507 / RFU, DGCR2 / Fold change vs veh, DGCR2 / RFU, WDSUB1 / Fold change vs veh, WDSUB1 / Fold change vs veh, HSP90B1 /// MIR3652 / RFU, ADSS / Fold change vs veh, ADSS / RFU, GK / Fold change vs veh, GK / RFU, ZNF148 / Fold change vs veh, ZNF148 / RFU, TAF9 / Fold change vs veh, TAF9 / RFU, SLC1A5 / Fold change vs veh, SLC1A5 / RFU, SLMO2 / Fold change vs veh, SLMO2 / RFU, ABCC4 / Fold change vs veh, ABCC4 / RFU, LOC101060439 /// RAP1B / Fold change vs veh, LOC101060439 /// RAP1B / RFU, RFX7 / Fold change vs veh, RFX7 / RFU, GTPBP10 / Fold change vs veh, GTPBP10 / RFU, CNEP1R1 / Fold change vs veh, CNEP1R1 / RFU, BIVM-ERCC5 /// ERCC5 / Fold change vs veh, BIVM-ERCC5 /// ERCC5 / RFU, ILF3 / Fold change vs veh, ILF3 / RFU 11762660_at / Fold change /veh 11762660_at / RFU VCAN (11757783_s_at) / Fold change /veh VCAN (11757783_s_at) / RFU DDX43 (11728927_at) / Fold change /veh DDX43 (11728927_at) / RFU KRT8 (11758188_x_at) / Fold change /veh KRT8 (11758188_x_at) / RFU NKD1 (11759106_at) / Fold change /veh NKD1 (11759106_at) / RFU SRD5A1 (11742802_a_at) / Fold change /veh SRD5A1 (11742802_a_at) / RFU TPSAB1 /// TPSB2 (11721975_s_at) / Fold change /veh TPSAB1 /// TPSB2 (11721975_s_at) / RFU GSTM3 (11746129_a_at) / Fold change /veh GSTM3 (11746129_a_at) / RFU IL23R (11737362_x_at) / Fold change /veh IL23R (11737362_x_at) / RFU TMEM51 (11727254_a_at) / Fold change /veh TMEM51 (11727254_a_at) / RFU PIWIL2 (11732686_x_at) / Fold change /veh PIWIL2 (11732686_x_at) / RFU ORM1 (11744905_x_at) / Fold change /veh ORM1 (11744905_x_at) / RFU CCDC152 (11743942_at) / Fold change /veh CCDC152 (11743942_at) / RFU ECM1 (11717891_a_at) / Fold change /veh ECM1 (11717891_a_at) / RFU IL23R (11748794_a_at) / Fold change /veh IL23R (11748794_a_at) / RFU TNFAIP8L3 (11732012_x_at) / Fold change /veh TNFAIP8L3 (11732012_x_at) / RFU MBOAT4 (11741988_at) / Fold change /veh MBOAT4 (11741988_at) / RFU 11764193_at / Fold change /veh 11764193_at / RFU TMEM53 (11763286_at) / Fold change /veh TMEM53 (11763286_at) / RFU MAGEB2 (11727129_at) / Fold change /veh MAGEB2 (11727129_at) / RFU TMEM200A (11744735_a_at) / Fold change /veh TMEM200A (11744735_a_at) / RFU CCDC152 (11751479_a_at) / Fold change /veh CCDC152 (11751479_a_at) / RFU FAM211A (11726209_a_at) / Fold change /veh FAM211A (11726209_a_at) / RFU RGS16 (11746705_a_at) / Fold change /veh RGS16 (11746705_a_at) / RFU VCAN (11755009_s_at) / Fold change /veh VCAN (11755009_s_at) / RFU RHOB (11743442_s_at) / Fold change /veh RHOB (11743442_s_at) / RFU RGS16 (11720943_a_at) / Fold change /veh RGS16 (11720943_a_at) / RFU RGS16 (11720944_at) / Fold change /veh RGS16 (11720944_at) / RFU, VPS4B / Fold change vs veh, VPS4B / RFU, CREB1 / Fold change vs veh, CREB1 / RFU, DNAJC13 / Fold change vs veh, DNAJC13 / RFU, GNAQ / Fold change vs veh, GNAQ / RFU, CDK5R1 / Fold change vs veh, CDK5R1 / RFU, ZRANB3 / Fold change vs veh, ZRANB3 / RFU, CUL4A / Fold change vs veh, CUL4A / RFU, CCNY / Fold change vs veh, CCNY / RFU, UFL1 / Fold change vs veh, UFL1 / RFU, COG3 / Fold change vs veh, COG3 / RFU, DIAPH2 / Fold change vs veh, DIAPH2 / RFU, SKA2 / Fold change vs veh, SKA2 / RFU, AFF3 / Fold change vs veh, AFF3 / RFU, LMF1 / Fold change vs veh, LMF1 / RFU, IPO11 / Fold change vs veh, IPO11 / RFU, DFFB / Fold change vs veh, DFFB / RFU, FOXP1 / Fold change vs veh, FOXP1 / RFU, CARD8 / Fold change vs veh, CARD8 / RFU, STRN3 / Fold change vs veh, STRN3 / RFU, ADK / Fold change vs veh, ADK / RFU, RASSF2 / Fold change vs veh, RASSF2 / RFU, WIPF1 / Fold change vs veh, WIPF1 / RFU, LARP1B / Fold change vs veh, LARP1B / RFU, RASA1 / Fold change vs veh, RASA1 / RFU, RB1 / Fold change vs veh, RB1 / RFU, PPFIA1 / Fold change vs veh, PPFIA1 / RFU, MAT2A / Fold change vs veh, MAT2A / RFU, CCT5 / Fold change vs veh, CCT5 / RFU, WDR92 / Fold change vs veh, WDR92 / RFU, CUX1 / Fold change vs veh, CUX1 / RFU, TTC7A / Fold change vs veh, TTC7A / RFU, TMEM135 / Fold change vs veh, TMEM135 / RFU, DEPTOR / Fold change vs veh, DEPTOR / RFU, CPM / Fold change vs veh, CPM / RFU, DNAJB6 / Fold change vs veh, DNAJB6 / RFU, CACNA2D3 / Fold change vs veh, CACNA2D3 / RFU, DTX4 / Fold change vs veh, DTX4 / RFU, TFCP2 / Fold change vs veh, TFCP2 / RFU, GMCL1 /// GMCL1P1 / Fold change vs veh, GMCL1 /// GMCL1P1 / RFU, AEBP2 / Fold change vs veh, AEBP2 / RFU, SNHG1 /// SNORD22 /// SNORD25 /// SNORD26 /// SNORD27 /// SNORD28 /// SNORD29 /// SNORD31 / Fold change vs veh, SNHG1 /// SNORD22 /// SNORD25 /// SNORD26 /// SNORD27 /// SNORD28 /// SNORD29 /// SNORD31 / Fold change (Aza/veh), C12orf56 (ProbeSet 11735607_a_at) / Fold change (ACY-1035/veh), C12orf56 (ProbeSet 11735607_a_at) / Fold change (Aza/veh), FGFR1OP (ProbeSet 11751329_s_at) / Fold change (ACY-1035/veh), FGFR1OP (ProbeSet 11751329_s_at) / Fold change (Aza/veh), VPS36 (ProbeSet 11739960_a_at) / Fold change (ACY-1035/veh), VPS36 (ProbeSet 11739960_a_at) / RFU SYPL1 (11715823_x_at) / Fold change /veh SYPL1 (11715823_x_at) / RFU IGFBP7 (11715501_s_at) / Fold change /veh IGFBP7 (11715501_s_at) / RFU REEP3 (11722064_at) / Fold change /veh REEP3 (11722064_at) / RFU IGLL1 (11728026_x_at) / Fold change /veh IGLL1 (11728026_x_at): dose or concentration left out as unconfirmed
Conditions: MV-4-11 cells, 48 hours

Nc1ncn([C@@H]2O[C@H](CO)[C@@H](O)[C@H]2O)c(=O)n1 [azacitidine]
RFU FAM211A (11726209_a_at): 7.10 RFU
